For the assay, the system named is compound 48/80-induced lethality. The experiment in a line: Protection of rats from compound 48/80-induced lethality. The settings on record: Rattus norvegicus; rats treated subcutaneously or orally 1 hour before compound 48/80 0.5 mg/kg intravenously; 50% of animals protected; survival after 4 hours; read-out: Compound 48/80 lethality test in rats-ED50. Type of assay: in vivo, rat (male, inbred Wistar strain). The source says:
Protection of rats from compound […] lethality
Compound 48/80, a mixture of oligomers obtained by condensation of 4-methoxy-N-methylbenzeneethanamine and formaldehyde has been described as a potent histamine releasing agent (Int. Arch. Allergy, 13, 336 (1958)). The protection from compound 48/80-induced lethal circulatory collapse appears to be a simple way of evaluating quantitatively the antihistaminic activity of test compounds. Male rats of an inbred Wistar strain, weighing 240-260 g were used in the experiment. After overnight starvation the rats were transferred to conditioned laboratories (temp.=[…], relative humidity=65±5%). The rats were treated subcutaneously or orally with a test compound or with the solvent (NaCl solution, 0.9%). One hour after treatment there was injected intravenously compound 48/80, freshly dissolved in water, at a dose of 0.5 mg/kg (0.2 ml/100 g of body weight). In control experiments, wherein 250 solvent-treated animals were injected with the standard dose of compound 48/80, not more than 2.8% of the animals survived after 4 hours. Survival after 4 hours is therefore considered to be a safe criterion of a protective effect of drug administration. Said ED50 -values are the values in mg/kg body weight at which the tested compounds protect 50% of the tested animals against compound 48/80-induced lethality.
Take `CCOCCn1c(NC2CCN(CCc3ccc(OC)cc3)CC2)nc2cccnc21` [Compound 45]: the ED50 is 0.02 mg/kg.
Regarding `CCOCCn1c(NC2CCN(CCc3c(C)nc4ccccn4c3=O)CC2)nc2cccnc21` [Compound 46], the ED50 is 0.01 mg/kg.
For `CCOCCn1c(CC2CCN(CCc3ccc(OC)cc3)CC2)nc2cccnc21` [Compound 59], the ED50 amounted to 0.02 mg/kg.
Take `CCOCCn1c(NC2CCN(CCCC(C)=O)CC2)nc2cccnc21` [Compound 61]: the ED50 is 0.04 mg/kg.
In the case of `CCOCCn1c(CC2CCN(CCc3c(C)nc4ccccn4c3=O)CC2)nc2cccnc21` [Compound 62] it was 0.04 mg/kg; in that of `CCOCCn1c(NC2CCN(CCCOc3ccc(F)cc3)CC2)nc2cccnc21` [Compound 63], 0.04 mg/kg; in that of `CCOCCn1c(NC2CCN(CCc3c(C)nc4sccn4c3=O)CC2)nc2cccnc21` [Compound 64], 0.02 mg/kg.
Under `CCOCCn1c(NC2CCN(CCCC(=O)c3ccc(F)cc3)CC2)nc2cccnc21` [Compound 65] stands 0.02 mg/kg; under `CCOCCn1c(NC2CCN(CCc3scnc3C)CC2)nc2cccnc21` [Compound 67], 0.02 mg/kg.
In the case of `CCOCCn1c(NC2CCN(CCn3c(=O)[nH]c4ccccc4c3=O)CC2)nc2cccnc21` [Compound 68] it was 0.04 mg/kg; in that of `CCOCCn1c(NC2CCN(CCc3c(C)nc4n(c3=O)CCCC4)CC2)nc2cccnc21` [Compound 70], 0.04 mg/kg.
Turning to `CCOCCn1c(CC2CCN(CCn3c(=O)[nH]c4ccccc43)CC2)nc2cccnc21` [Compound 80], the ED50 came out at 0.02 mg/kg.
Under `CCOCCn1c(NC2CCN(CCc3cc4ccccc4oc3=O)CC2)nc2cccnc21` [Compound 82] stands 0.04 mg/kg; under `CCOCCn1c(NC2CCN(CCSc3ccccc3)CC2)nc2cccnc21` [Compound 100, 3-(2-ethoxyethyl)-N-[1-[2-(phenylthio)ethyl]-4-piperidinyl]-3H-imidazo [4,5-b]-pyridin-2-amine], 0.04 mg/kg; under `CCOCCn1c(NC2CCN(C)CC2)nc2cccnc21` [Compound 108, 3-(2-ethoxyethyl)-N-(1-methyl-4-piperidinyl)-3H-imidazo[4,5-b]pyridin-2-amine], 0.04 mg/kg.
As to `CCOCCn1c(NC2CCN(CC)CC2)nc2cccnc21` [Compound 115], the ED50 came to 0.04 mg/kg.
In the case of `CCOCCn1c(CC2CCN(C)CC2)nc2cccnc21` [Compound 126] it was 0.04 mg/kg; in that of `CCOCCn1c(CC2CCN(CCNc3ncccn3)CC2)nc2cccnc21` [Compound 131, N-[2-[4-[[3-(2-ethoxyethyl)-3H-imidazo[4,5-b]pyridin-2-yl]methyl]-1-piperidinyl]ethyl]-2-pyrimidinamine], 0.02 mg/kg.
Under `CCOCCn1c(NC2CCN(CCNc3ncccn3)CC2)nc2cccnc21` [Compound 132, 3-(2-ethoxyethyl)-N-[1-[2-(2-pyrimidinylamino)ethyl]-4-piperidinyl]-3H-imidazo[4,5-b]pyridin-2-amine] stands 0.01 mg/kg; under `CCOCCn1c(NC2CCN(CCOc3ncccn3)CC2)nc2cccnc21` [Compound 133, 3-(2-ethoxyethyl)-N-[1-[2-(2-pyrimidinyloxy)ethyl]-4-piperidinyl]-3H-imidazo-[4,5-b]pyridin-2-amine], 0.02 mg/kg; under `CCOCCn1c(CC2CCN(CCOc3ncccn3)CC2)nc2cccnc21` [Compound 134, 3-(2-ethoxyethyl)-2-[[1-[2-(2-pyrimidinyloxy)ethyl]4-piperidinyl]methyl]-3H-imidazo-[4,5-b]pyridine], 0.005 mg/kg.
Regarding `CCOCCn1c(NC2CCN(CCNc3nc4cnccc4[nH]3)CC2)nc2cccnc21` [Compound 141, 3-(2-ethoxyethyl)-N-[1-[2-[(1H-imidazo[4,5-c]pyridin-2-yl)amino]ethyl]-4-piperidinyl]-3H-imidazo[4,5-b]pyridin-2-amine], the ED50 was determined as 0.02 mg/kg.
Under `CCOCCn1c(NC2CCN(CCNC(=O)c3ccoc3)CC2)nc2cccnc21` [Compound 142, N-[2-[4-[[3-(2-ethoxyethyl)-3H-imidazo[4,5-b]pyridin-2-yl]amino]-1-piperidinyl]ethyl]-3-furancarboxamide] stands 0.04 mg/kg; under `CCOCCn1c(NC2CCN(CCNC(=O)c3cccn3C)CC2)nc2cccnc21` [Compound 143, N-[2-[4-[[3-(2-ethoxyethyl)-3H-imidazo[4,5-b]pyridin-2-yl]amino]-1-piperidinyl]ethyl]-1-methyl-1H-pyrrole-2-carboxamide], 0.02 mg/kg; under `CCOCCn1c(CC2CCN(CCNC(=O)c3nccs3)CC2)nc2cccnc21` [Compound 144, N-[2-[4-[[3-(2-ethoxyetyyl)-3H-imidazo[4,5-b]pyridin-2-yl]methyl]-1-piperidinyl]ethyl]-2-thiazolecarboxamide], 0.02 mg/kg.
As for `CCOCCn1c(NC2CCN(CCc3ccccn3)CC2)nc2cccnc21` [Compound 151, 3-(2-ethoxyethyl)-N-[1-[2-(2-pyridinyl)ethyl]-4-piperidinyl]-3H-imidazo-[4,5-b]pyridin-2-amine], the ED50 is 0.02 mg/kg.
In the case of `CCOCCn1c(CC2CCN(CCc3ccccn3)CC2)nc2cccnc21` [Compound 152, 3-(2-ethoxyethyl)-2-[[1-[2-(2-pyridinyl)ethyl]-4-piperidinyl]methyl]-3H-imidazo-[4,5-b]pyridine] it was 0.005 mg/kg.
